Assay results: EP0482657A2, “Cephem compounds, their production and use” (Takeda Chemical Industries, Ltd., priority 1990, dated 1992)

Assays:
[1] = test system: Staphylococcus aureus 308A-1; experiment: Therapeutic effects against intraperitoneal infections in mice (oral administration); assay type: in vivo; settings: 308A1, po, 120 h; Slc:ICR mice infected intraperitoneally with Staphylococcus aureus 308A-1; once orally immediately after infection; survival over five days; Reed and Münch; in terms of potency of the said cephem carboxylic acid
Method: (§1) Infections in Mice. Test animals: Slc : ICR, 4-week old male mice (body weight 20 to 22 g) were employed. Induction of experimental infections (infected mice):
(§2) Staphylococcus aureus 308A-1 or Escherichia coli 0-111 was cultured in Brain Heart Infusion broth (manufactured by Difco Co.) at 37°C for 20 hours. Each of the organisms was suspended in a 8% mucin solution (manufactured by Difco in) at a concentration of 2 x 10⁸ Colony Forming Units (hereinafter abbreviated as "CFU")/ml and 2 x 10⁵ CFU/ml, respectively, and 0.5 ml of each suspension was administered intraperitoneally. Administration of Test compounds: 25 mg of each test compound was dissolved in 0.5 ml of DMSO, and each solution was diluted in distilled water to prepare two fold dilutions of each compound in the range of 2.5 mg/ml - 0.156 mg/ml in the case of infection with Staphylococcus aureus and in the range of 0.156 mg/ml - 0.01 mg/ml in the case of infection with Escherichia coli. A volume of 0.2 ml of each dilution was once administered orally using a tube into the stomach of five mice each in each group immediately after the infection. […] The ED₅₀ value of each compound was that in terms of the potency of the said cephem carboxylic acid.

Escherichia coli O-111 = experiment: as above; assay type: in vivo; settings: O111, po, 120 h; Slc:ICR mice infected intraperitoneally with Escherichia coli O-111; once orally immediately after infection; survival over five days; Reed and Münch; in terms of potency of the said cephem carboxylic acid
Method: as §1, §2

SMILES	ED50 [1] [mg/kg]	ED50 (Escherichia coli O-111) [mg/kg]
Cc1nnc(SCC2=C(C(=O)O)N3C(=O)[C@@H](NC(=O)/C(=N\O)c4csc(N)n4)[C@H]3SC2)s1 [GB-A-1587941 Ex.16, 7β-[2-(2-aminothiazol-4-yl)-(Z)-2-hydroxyiminoacetamido]-3-[(2-methyl-1,3,4-thiadiazol-5-yl)thiomethyl]-3-cephem-4-carboxylic acid, reference compound]	> 25	1.25
CCC(CC)OC(=O)OC(C)OC(=O)C1=C(CSc2nnc(C)s2)CS[C@@H]2[C@H](NC(=O)/C(=N\O)c3csc(N)n3)C(=O)N12.Cl (stereo partly drawn) [Ex.6, 1-(1-Ethylpropoxycarbonyloxy)ethyl 7β-[2-(2-aminothiazol-4-yl)-(Z)-2-hydroxyiminoacetamido]-3-[(2-methyl-1,3,4-thiadiazol-5-yl)thiomethyl]-3-cephem-4-carboxylate hydrochloride]	12.5	
Cc1nnc(SCC2=C(C(=O)OC(C)OC(=O)OC3CCC3)N3C(=O)[C@@H](NC(=O)/C(=N\O)c4csc(N)n4)[C@H]3SC2)s1.Cl (stereo partly drawn) [Ex.5, 1-(Cyclobutyloxycarbonyloxy)ethyl 7β-[2-(2-aminothiazol-4-yl)-(Z)-2-hydroxyiminoacetamido]-3-[(2-methyl-1,3,4-thiadiazol-5-yl)thiomethyl]-3-cephem-4-carboxylate hydrochloride]	14	
CCOC(=O)OC(C)OC(=O)C1=C(CSc2nnc(C)s2)CS[C@@H]2[C@H](NC(=O)/C(=N\O)c3csc(N)n3)C(=O)N12 (some centres unmarked) [JP-A-9698/1985 PR Ex.4, 1-(ethoxycarbonyloxy)ethyl ester of the said cephem carboxylic acid, reference compound]	> 25	0.349
Cc1nnc(SCC2=C(C(=O)OCOC(=O)C(C)(C)C)N3C(=O)[C@@H](NC(=O)/C(=N\O)c4csc(N)n4)[C@H]3SC2)s1 [JP-A-9698/1985 PR Ex.3, pivaloyloxymethyl ester of the said cephem carboxylic acid, reference compound]	22.3	0.279
Cc1nnc(SCC2=C(C(=O)OC(C)OC(=O)OC(C)C)N3C(=O)[C@@H](NC(=O)/C(=N\O)c4csc(N)n4)[C@H]3SC2)s1 (single isomer, unassigned) [Ex.1, 1-(Isopropoxycarbonyloxy)ethyl 7β-[2-(2-aminothiazol-4-yl)-(Z)-2-hydroxyiminoacetamido]-3-[(2-methyl-1,3,4-thiazol-5-yl)thiomethyl]-3-cephem-4-carboxylate]	7.02	0.141
Cc1nnc(SCC2=C(C(=O)OC(C)OC(=O)OC3CCCC3)N3C(=O)[C@@H](NC(=O)/C(=N\O)c4csc(N)n4)[C@H]3SC2)s1 (stereo partly drawn) [Ex.3, 1-(Cyclopentyloxycarbonyloxy)ethyl 7β-[2-(2-aminothiazol-4-yl)-(Z)-2-hydroxyiminoacetamido]-3-[(2-methyl-1,3,4-thiadiazol-5-yl)thiomethyl]-3-cephem-4-carboxylate]	8.84	0.13
Cc1nnc(SCC2=C(C(=O)OC(C)OC(=O)OC(C)C)N3C(=O)[C@@H](NC(=O)/C(=N\O)c4csc(N)n4)[C@H]3SC2)s1.Cl (stereo partly drawn) [Ex.2, 1-(Isopropoxycarbonyloxy)ethyl 7β-[2-(2-aminothiazol-4-yl)-(Z)-2-hydroxyiminoacetamido]-3-[(2-methyl-1,3,4-thiadiazol-5-yl)thiomethyl]-3-cephem-4-carboxylate hydrochloride]	5.57	0.13
